The results in this text go back to publication PMC3641821 (2011).

Assay [1] relates to D4, d[5'-A3G5C5T3-3'] (DNA, duplex) AAAGGGGGCCCCCTTT
Put plainly: ITC. Particulars: 100 mM KCl; 10 mM sodium cacodylate, 0.5 mM EDTA, pH 6.8, 25 °C.

Assay [2] concerns D1, d[5'-G3G5C5C3-3'] (DNA, duplex) GGGGGGGGCCCCCCCC
Put plainly: ITC. The note with it: 100 mM KCl; 10 mM sodium cacodylate, 0.5 mM EDTA, pH 6.8, 25 °C.

Assay [3] concerns D8, d[5'-A2GAG2AGAGA2GAGAG2AGA2-3'] 22-mer duplex (DNA, duplex) AAGAGGAGAGAAGAGAGGAGAA/TTCTCCTCTCTTCTCTCCTCTT
Put plainly: ITC. The note with it: 100 mM KCl; 10 mM sodium cacodylate, 0.5 mM EDTA, pH 6.8, 25 °C; site 1 of 2.

Assay [4] deals with D11, d[5'-(AT)8-3'] (DNA, duplex) ATATATATATATATAT
Put plainly: ITC. The note with it: 100 mM KCl; 10 mM sodium cacodylate, 0.5 mM EDTA, pH 6.8, 25 °C.

Assay [5] deals with D5, d[5'-A12-x-T12-3'] (intramolecular duplex) (DNA, hairpin, x = hexaethylene glycol linker between positions 12 and 13) AAAAAAAAAAAATTTTTTTTTTTT
Put plainly: ITC. The note with it: 100 mM KCl; 10 mM sodium cacodylate, 0.5 mM EDTA, pH 6.8, 25 °C; site 1 of 2.

For assay [6], the system named is poly(dA.dT)2 (DNA, polymer) AT. Put plainly: UV melting. Particulars: K+ 100 or 150 mM; Na+ 10 mM (cacodylate); rbd 10; per base.
Assay [7] deals with D6, d[5'-A30T30-3'] (DNA, duplex) AAAAAAAAAAAAAAAAAAAAAAAAAAAAAATTTTTTTTTTTTTTTTTTTTTTTTTTTTTT
Put plainly: ITC. The note with it: 100 mM KCl; 10 mM sodium cacodylate, 0.5 mM EDTA, pH 6.8, 25 °C; site 1 of 2.

Assay [8] has as its system D2, d[5'-G2A6T6C2-3'] (DNA, duplex) GGAAAAAATTTTTTCC
Put plainly: ITC. Particulars: 100 mM KCl; 10 mM sodium cacodylate, 0.5 mM EDTA, pH 6.8, 25 °C; site 1 of 2.

Assay [9] deals with D3, d[5'-G3A5T5C3-3'] (DNA, duplex) GGGAAAAATTTTTCCC
Put plainly: ITC. The note with it: 100 mM KCl; 10 mM sodium cacodylate, 0.5 mM EDTA, pH 6.8, 25 °C; site 1 of 2.

Assay [10] has as its system D9, d[5'-G3(AT)5C3-3'] (DNA, duplex) GGGATATATATATCCC
Put plainly: ITC. The note with it: 100 mM KCl; 10 mM sodium cacodylate, 0.5 mM EDTA, pH 6.8, 25 °C.

With `NC[C@@H]1O[C@H](O[C@H]2[C@@H](O)[C@H](O[C@@H]3[C@@H](O)[C@H](N)C[C@H](N)[C@H]3O[C@H]3O[C@H](CN)[C@@H](O)[C@H](O)[C@H]3N)O[C@@H]2CO)[C@H](N)[C@@H](O)[C@@H]1O`, the K1 in assay [1] was 2.02 ± 0.20 × 10^5 M^-1; in assay [2] it was 3.80 ± 0.18 × 10^5 M^-1.
For `NC[C@@H]1O[C@H](O[C@H]2[C@@H](O)[C@H](O[C@@H]3[C@@H](O)[C@H](N)C[C@H](N)[C@H]3O[C@H]3O[C@H](CN)[C@@H](O)[C@H](O)[C@H]3N)O[C@@H]2CSCCNC(=S)NCCOCCOCCNC(=S)NCCSC[C@H]2O[C@@H](O[C@@H]3[C@@H](O)[C@H](N)C[C@H](N)[C@H]3O[C@H]3O[C@H](CN)[C@@H](O)[C@H](O)[C@H]3N)[C@H](O)[C@@H]2O[C@H]2O[C@@H](CN)[C@@H](O)[C@H](O)[C@H]2N)[C@H](N)[C@@H](O)[C@@H]1O`, the K1 in assay [3] is 1.78 ± 1.00 × 10^7 M^-1; in assay [4] it was 5.88 ± 2.90 × 10^7 M^-1; in assay [5] it was 28.2 ± 12.0 × 10^7 M^-1; in assay [7], 129.2 ± 54.1 × 10^7 M^-1; in assay [8] it was 12.9 ± 3.4 × 10^7 M^-1; in assay [1], 7.75 ± 1.70 × 10^5 M^-1. The figures for the K1 in assay [9], in assay [10] and in assay [2] were 25.3 ± 10.0 × 10^7 M^-1, 0.54 ± 0.15 × 10^7 M^-1 and 0.27 ± 0.02 × 10^7 M^-1, respectively. Also, the ΔTm in assay [6] is ~ 11 °C.
